Square brackets hold non-standard residues; d marks the D form. Peptide text beside a SMILES is read from it.
Experiment: Pharmacokinetics after a single IV dose in rats
Conditions: male, Sprague-Dawley, rat, in vivo, equivalent protein mass of 1.0 mg/kg
Description: The weight range of the animals was 311-346 grams. All animals were food fasted overnight. […] The predose sample was collected from the JVC.
Following the last collection point, the animals were euthanized.

CC[C@H](C)[C@H](NC(=O)[C@H](C)NC(=O)[C@H](CCCCN)NC(=O)[C@H](CC(C)C)NC(=O)[C@H](C)NC(=O)[C@@H](NC(=O)[C@H](Cc1c[nH]cn1)NC(=O)[C@H](CC(C)C)NC(=O)[C@@H](NC(=O)[C@@H](NC(=O)[C@H](CCCCN)NC(=O)[C@@H](C)NC(=O)[C@H](C)NC(=O)[C@H](CO)NC(=O)[C@H](CCCCN)NC(=O)[C@H](Cc1ccccc1)NC(=O)[C@@H](NC(=O)[C@H](CCCCN)NC(=O)[C@H](CC(C)C)NC(=O)[C@H](Cc1ccccc1)NC(=O)[C@H](CO)NC(=O)[C@H](CCCCN)NC(=O)[C@H](Cc1c[nH]c2ccccc12)NC(=O)[C@H](CCCCN)NC(C)=O)[C@@H](C)O)[C@@H](C)O)C(C)C)[C@@H](C)O)C(=O)N[C@@H](CO)C(=O)N[C@@H](CO)C(N)=O [V681 (V13AD)] (Ac-KWKSFLKTFKSA[dA]KTVLHTALKAISS-NH2)
AUC(0-inf): 7210 ± 1430 ng·h/mL
Cmax: 16500 ± 9670 ng/mL
MRT: 19.8 ± 4.8 min
clearance: 2.37 mL/min/kg
half-life: 36.6 ± 23.4 min
Vd (read-out: Vss): 0.0477 ± 0.018 L/kg

Source: US20110165113A1, “POLYMER CONJUGATES OF V681-LIKE PEPTIDES” (Nektar Therapeutics, priority 2008, published 2011)
